≈ marks a conversion by molar mass, not a printed value. Structures can show the parent of a compound that is named as a salt.
What was measured:
[1] = test system: H37Rv strain of M. tuberculosis; experiment: Alamar Blue Susceptibility Test (MABA); type: cell-based; conditions: H37Rv strain of M. tuberculosis, Alamar Blue; for MIC: Mycobacterium tuberculosis, read-out: MABA (TB growth inhibition, colourimetric assay)
[2] = test system: non replicating phase of M. tuberculosis (H37Rv with a plasmid with an acetimidase promoter driving a luciferase gene); experiment: microbe, parasite or virus in culture; type: cell-based; conditions: non replicating M. tuberculosis H37Rv luciferase strain; for MIC: Mycobacterium tuberculosis, read-out: LORA (TB growth inhibition, MIC)

Compound | MIC [1] [µM] | MIC [2] [µM] | MABA (TB growth inhibition, colourimetric assay) [1] | LORA (TB growth inhibition, MIC) [2]
FC(F)(F)c1ccc(CNc2nc(N3CCc4ccccc4C3)nc3ccccc23)cc1 [Compound 114, 2-(3,4-Dihydroisoquinolin-2(1H)-yl)-N-(4-(trifluoromethyl)benzyl)quinazolin-4-amine hydrochloride] | < 10 | < 10 |  | 
CC(C)(Nc1nc(N2CCCCC2)nc2ccccc12)c1ccc(F)cc1 [Compound 120, N-(2-(4-Fluorophenyl)propan-2-yl)-2-(piperidin-1-yl)quinazolin-4-amine] | < 10 | 10 to 50 (≈ 3.64 to 18.2 µg/mL) |  | 
Cc1ccc(CNc2nc(NCc3ccc(C(F)(F)F)cc3)c3ccccc3n2)cc1 [Compound 79, N^4-(4-Trifluoromethylbenzyl)-N^2-(4-methylbenzyl)quinazoline-2,4-diamine] | < 10 | 10 to 50 (≈ 4.22 to 21.1 µg/mL) |  | 
Clc1ccccc1CNc1nc(N2CCCCC2)nc2ccccc12 [Compound 40, N-(2-Chlorobenzyl)-2-(piperidin-1-yl)quinazolin-4-amine] | < 10 | 10 to 50 (≈ 3.53 to 17.6 µg/mL) |  | 
FC(F)(F)c1cccc(CNc2nc(N3CCCCC3)nc3ccccc23)c1 [Compound 49, 2-(Piperidin-1-yl)-N-(3-(trifluoromethyl)benzyl)quinazolin-4-amine] | < 10 | 10 to 50 (≈ 3.86 to 19.3 µg/mL) |  | 
C[C@@H](Nc1nc(N2CCCCC2)nc2ccccc12)c1ccccc1 [Compound 39, (R)—N-(1-Phenylethyl)-2-(piperidin-1-yl)quinazolin-4-amine] | < 10 | 10 to 50 (≈ 3.32 to 16.6 µg/mL) |  | 
CN1CCN(c2nc(NCc3ccccc3)c3ccccc3n2)CC1 [Compound 6, N-Benzyl-2-(4-methylpiperazin-1-yl)quinazolin-4-amine hydrochloride] | 50 to 128 | 50 to 128 |  | 
FC(F)(F)c1ccc(CCNc2nc(N3CCCCC3)nc3ccccc23)cc1 [Compound 105, 2-(Piperidin-1-yl)-N-(4-(trifluoromethyl)phenethyl)quinazolin-4-amine] | < 10 | < 10 |  | 
Cc1cccc(CNc2nc(N3CCCCC3)nc3ccccc23)c1 [Compound 80, N-(3-Methylbenzyl)-2-(piperidin-1-yl)quinazolin-4-amine hydrochloride] | < 10 | 10 to 50 |  | 
C[C@@H](Nc1nc(N2CCCCC2)nc2ccccc12)c1ccc(C(F)(F)F)cc1 [Compound 117, (R)-2-(Piperidin-1-yl)-N-(1-(4-(trifluoromethyl)phenyl)ethyl)quinazolin-4-amine] | < 10 | < 10 |  | 
c1ccc2c(NCC3CCCCC3)nc(N3CCCCC3)nc2c1 [Compound 45, N-(Cyclohexylmethyl)-2-(piperidin-1-yl)quinazolin-4-amine] | < 10 | 10 to 50 (≈ 3.24 to 16.2 µg/mL) |  | 
FC(F)(F)c1ccccc1CNc1nc(N2CCCCC2)nc2ccccc12 [Compound 42, 2-(Piperidin-1-yl)-N-(2-(trifluoromethyl)benzyl)quinazolin-4-amine] | < 10 | 10 to 50 (≈ 3.86 to 19.3 µg/mL) |  | 
c1ccc(CN(Cc2ccccc2)c2nc(N3CCCCC3)nc3ccccc23)cc1 [Compound 66, N,N-Dibenzyl-2-(piperidin-1-yl)quinazolin-4-amine] | < 10 | 10 to 50 (≈ 4.09 to 20.4 µg/mL) |  | 
Clc1ccc(CNc2nc(N3CCCCC3)c3ccccc3n2)c(Cl)c1 [Compound 112, N-(2,4-Dichlorobenzyl)-4-(piperidin-1-yl)quinazolin-2-amine hydrochloride] | < 10 | < 10 |  | 
Fc1ccc(CNc2nc(N3CCCCC3)nc3ccccc23)c(F)c1 [Compound 115, N-(2,4-Difluorobenzyl)-2-(piperidin-1-yl)quinazolin-4-amine hydrochloride] | < 10 | 10 to 50 |  | 
c1ccc2c(NC3C4CC5CC(C4)CC3C5)nc(N3CCOCC3)nc2c1 (stereo not drawn) [Compound 19, 2-Morpholino-N-(1-[2′-adamantyl])quinazolin-4-amine] |  |  | +++ (10-50 μM=+++) | +++ (10-50 μM=+++)
Clc1ccc(CNc2nc(N3CCCCC3)nc3ccccc23)c(Cl)c1 [Compound 69, N-(2,4-Dichlorobenzyl)-2-(piperidin-1-yl)quinazolin-4-amine] | < 10 | 10 to 50 (≈ 3.87 to 19.4 µg/mL) |  | 
c1ccc2c(c1)CCN(c1nc(N3CCCCC3)nc3ccccc13)C2 [Compound 36, 4-(3,4-Dihydroisoquinolin-2(1H)-yl)-2-(piperidin-1-yl)quinazoline] | < 10 | 10 to 50 (≈ 3.44 to 17.2 µg/mL) |  | 
c1ccc(CNc2nc(N3CCCC3)nc3ccccc23)cc1 [Compound 22, N-Benzyl-2-(pyrrolidin-1-yl)quinazolin-4-amine] | < 10 | 10 to 50 (≈ 3.04 to 15.2 µg/mL) |  | 
c1ccc2c(NC3C4CC5CC(C4)CC3C5)nc(N3CCOCC3)nc2c1 (stereo not drawn) [Compound 16, N-(2′-Adamantyl)-2-morpholinoquinazolin-4-amine] |  |  | +++ (10-50 μM=+++) | +++ (10-50 μM=+++)
COc1cc2nc(N3CCOCC3)nc(NCc3ccccc3)c2cc1OC [Compound 17, N-Benzyl-6,7-dimethoxy-2-morpholinoquinazolin-4-amine] | 50 to 128 (≈ 19 to 48.7 µg/mL) |  |  | −
CC(Nc1nc(N2CCOCC2)nc2ccccc12)c1ccccc1 (stereo not drawn) [Compound 9, 2-Morpholino-N-(1-phenylethyl)quinazolin-4-amine] | 50 to 128 (≈ 16.7 to 42.8 µg/mL) | 50 to 128 (≈ 16.7 to 42.8 µg/mL) |  | 
C[C@@H](Nc1nc(N2CCCCC2)nc2ccccc12)c1ccc(F)cc1 [Compound 98, (R)—N-(1-(4-Fluorophenyl)ethyl)-2-(piperidin-1-yl)quinazolin-4-amine hydrochloride] | < 10 | 10 to 50 |  | 
C[C@@H](Nc1nc(N2CCCCC2)nc2ccccc12)c1cccc2ccccc12 [Compound 99, (R)—N-(1-(Naphthalen-1-yl)ethyl)-2-(piperidin-1-yl)quinazolin-4-amine hydrochloride] | < 10 | 10 to 50 |  | 
C[C@@H](Nc1nc(N2CCCCC2)nc2ccccc12)c1ccc2ccccc2c1 [Compound 100, (R)—N-(1-(Naphthalen-2-yl)ethyl)-2-(piperidin-1-yl)quinazolin-4-amine hydrochloride] | < 10 | 10 to 50 |  | 
Clc1ccc(CNc2nc(N3CCCCC3)nc3ccccc23)cc1 [Compound 34, N-(4-Chlorobenzyl)-2-(piperidin-1-yl)quinazolin-4-amine] | < 10 | 10 to 50 (≈ 3.53 to 17.6 µg/mL) |  | 
CC(C)(Nc1nc(N2CCCCC2)nc2ccccc12)c1ccccc1 [Compound 53, N-(2-Phenylpropan-2-yl)-2-(piperidin-1-yl)quinazolin-4-amine] | < 10 | 10 to 50 (≈ 3.46 to 17.3 µg/mL) |  | 
Cn1ncc2c(NCc3ccccc3)nc(N3CCCC3)nc21 [Compound 20, N-Benzyl-1-methyl-6-(pyrrolidin-1-yl)-1H-pyrazolo[3,4-d]pyrimidin-4-amine] | 50 to 128 (≈ 15.4 to 39.5 µg/mL) |  |  | −
Clc1ccc(N2CCN(c3nc(NCc4ccccc4)c4ccccc4n3)CC2)cc1 [Compound 134, N-Benzyl-2-(4-(4-chlorophenyl)piperazin-1-yl)quinazolin-4-amine hydrochloride] | < 10 | 10 to 50 |  | 
CC(Nc1nc(N2CCN(S(C)(=O)=O)CC2)nc2ccccc12)c1ccccc1 (stereo not drawn) [Compound 10, 2-(4-(Methylsulfonyl)piperazin-1-yl)-N-(1-phenylethyl)quinazolin-4-amine] | 50 to 128 (≈ 20.6 to 52.7 µg/mL) | 10 to 50 (≈ 4.12 to 20.6 µg/mL) |  | 

— patent US20100317607A1, “USE OF COMPOUNDS FOR PREPARING ANTI-TUBERCULOSIS AGENTS” (INFECTIOUS DISEASE RESEARCH INSTITUTE, priority 2007, published 2010)
